Laboratory results from patent US20110008304A1, “USE OF CELLS TO FACILITATE TARGETED DELIVERY OF NANOPARTICLE THERAPIES” (KANSAS STATE UNIVERSITY RESEARCH FOUNDATION, priority 2007, published 2011).
Entries after “also recorded” stand apart in the source; their conditions may differ. One block for each compound: values may come before it.

Experiments:
[1] = system: SN12 C renal; assay: NCI 60 human tumor cell lines, SRB protein assay, SN12 C; assay type: cell-based; settings: SRB protein assay after 2 days, read-out: GI50 (growth inhibition at 50%)
Source text: (§1) An analog of AQ10, AQ9 (NSC 727286), has been evaluated by NCI's 60 human tumor cell lines using the SRB protein assay to estimate cell growth and viability after 2 days. […] AQ10 is less cytotoxic than AQ9 in L1210 and HL60 cell lines (Table 1).

[2] = system: MDA-MB-231 breast tumor cell line; assay: NCI 60 human tumor cell lines, SRB protein assay, MDA-MB-231; assay type: cell-based; settings: SRB protein assay after 2 days, read-out: GI50 (growth inhibition at 50%)
Source text: as §1
(§2) Similarly TT compounds such as TT24 were synthesized from TT2 and evaluated for their antitumor activities (Hua et al. 2004. Tetrandedron 60:10155-63, Hua et al. […], Hua et al. 2006. Anticancer Agents Med. Chem. 6:303-18, Wang et al. 2002. Cancer Lett. 188:73-83). Selective bromination of TT2 with N-bromosuccinimide (NBS) in DMF followed by addition of allylmethylamine and removal of the allyl protecting group with Pd(PPh3)4 afforded TT24. TT24 (NSC 727284-K), has been evaluated by NCI's 60 human tumor cell lines using the SRB protein assay to estimate cell growth and viability after 2 days.

[3] = system: SR; assay: NCI 60 human tumor cell lines, SRB protein assay, SR; assay type: cell-based; settings: SRB protein assay after 2 days, read-out: GI50 (growth inhibition at 50%)
Source text: as §1

[4] = system: MOLT-4; assay: NCI 60 human tumor cell lines, SRB protein assay, MOLT-4; assay type: cell-based; settings: MOLT-4, SRB protein assay after 2 days; read-out: GI50 (growth inhibition at 50%)
Source text: as §1

[5] = system: LL/2 tumor cells; assay: MTS:PMS viability assay at day 4 in vitro, LL/2; assay type: cell-based; settings: MTS:PMS assay at day 4 in vitro, means ± SD, n = 3
[6] = system: L1210 tumor cells; assay: MTS:PMS viability assay at day 4 in vitro, L1210; assay type: cell-based; settings: MTS:PMS assay at day 4 in vitro, means ± SD, n = 3
[7] = system: HL-60 tumor cells; assay: MTS:PMS viability assay at day 4 in vitro, HL-60; assay type: cell-based; settings: MTS:PMS assay at day 4 in vitro, means ± SD, n = 3
[8] = system: HCT-116 colon; assay: NCI 60 human tumor cell lines, SRB protein assay, HCT-116; assay type: cell-based; settings: SRB protein assay after 2 days, read-out: GI50 (growth inhibition at 50%)
Source text: as §1

[9] = system: HL-60; assay: NCI 60 human tumor cell lines, SRB protein assay, HL-60; assay type: cell-based; settings: HL-60, SRB protein assay after 2 days; read-out: GI50 (growth inhibition at 50%)
Source text: as §1

[10] = system: K562; assay: NCI 60 human tumor cell lines, SRB protein assay, K562; assay type: cell-based; settings: K562, SRB protein assay after 2 days; read-out: GI50 (growth inhibition at 50%)
Source text: as §1

[11] = system: Pan 02 cells; assay: Pan 02 cell viability, MTT assay; assay type: cell-based, mouse
Procedure: Cell proliferation evaluation. The number of viable cells was evaluated by the MTT ([…]-2,5-diphenyl-tetrazolium bromide) assay (Roche Diagnostics GmbH, Germany) as well as hemocytometer and trypan blue exclusion analysis. Pan 02 cells were seeded in a 96 well plate. […] After incubation for 48 hrs, the medium was replaced with fresh medium containing 0.5 mg of MTT reagent per ml of medium and incubated for four hours at 37° C. Then, 100 μL of solubilization reagent was added to each well and incubated overnight at 37° C. Absorbance was measured in an ELISA plate reader at 550 nm, with the absorbance at 690 nm to correct for background, and viability was expressed as the percentage of untreated controls. To validate the MTT assay, trypan blue exclusion and hemocytometer counting assay was performed in parallel. All experiments were done in duplicate and were performed three times.
Statistical analysis. All values are expressed as means ±SE. Values of untreated cells were taken as […]. Statistical analysis of all Pan 02 cell proliferation assays were analyzed using repeated measures of ANOVA. […] Statistical significance was considered if P<0.05.

[12] = Solubility in water / encapsulation; assay type: physicochemical
[13] = Anti-cancer effect of drug-loaded nanogels, test not specified; assay type: cell-based
[14] = system: TK+UCMS cells; assay: Cell number of TK+UCMS cells exposed to pro-drug; assay type: cell-based; settings: dose range of 0 μM to 1600 μM
Source text: UCMS cells have been successfully engineered for stable expression of HSV-thymidine kinase. […] Thus, the suicide gene system is effective; after GCV administration to mice bearing tumors into which the UCMS-NG-TH (UCMS cells containing nanogels loaded with therapeutic agents) have trafficked, the NG-TH will be released into the tumor interstitium when the stem cells undergo apoptosis.

[15] = system: T47D breast tumor cell line; assay: NCI 60 human tumor cell lines, SRB protein assay, T47D; assay type: cell-based; settings: SRB protein assay after 2 days, read-out: GI50 (growth inhibition at 50%)
Source text: as §2

[16] = system: NCI/ADR-RES; assay: NCI 60 human tumor cell lines, SRB protein assay, NCI/ADR-RES; assay type: cell-based; settings: NCI/ADR-RES breast, SRB protein assay after 2 days; read-out: GI50 (growth inhibition at 50%)
Source text: as §2

[17] = system: L1210 cells; assay: Inhibition of L1210 cells by TT24; assay type: cell-based

Compound: Triton
- Anti-cancer / antitumor effect [13]: significantly potentiated the anti-cancer effect

Compound: Nc1nc(O)c2ncn(COC(CO)CO)c2n1 [Ganciclovir]
- Cell number of TK+UCMS cells [14]: Decreased cell number

Now from value to compound, other results behind:

- IC50 [5]: 680 ± 87 nM
- IC50 [6]: 26 ± 1 nM
- IC50 [7]: 79 ± 3 nM
Compound: O=C1C=CC(=O)c2cc3cc(CBr)ccc3cc21 [AQ9]
- GI50 [1]: 379 nM
- GI50 [2]: 735 nM
- GI50 [3]: 37.1 nM
- GI50 [4]: < 10 nM
- GI50 [8]: 606 nM
- GI50 [9]: < 10 nM
- GI50 [10]: 339 nM

- IC50 ([5]; LL/2, 96 h): 494 ± 59 nM
- IC50 ([6]; Mus musculus, L1210, 96 h): 37 ± 2 nM
- IC50 ([7]; Homo sapiens, HL-60, 96 h): 125 ± 7 nM
- Solubility in water [12]: insoluble
Compound: O=C1C=CC(=O)c2cc3cc(CO)ccc3cc21 [AQ10, 6-(hydroxymethyl)-1,4-anthracenedione]
- Effect of AQ10 dissolved in DMSO on Pan 02 cell viability / growth ([11]; MTT assay, 48 hrs, doses of 4.2, 8.4 and 16.8 μM, vs untreated and DMSO treated cells): significantly attenuated; also recorded: significant effect; also recorded: significantly decreased
- Growth attenuation of Pan 02 cells, AQ10 in nanogel PEG-PEI relative to AQ10 alone (in DMSO) ([11]; comparison of AQ10-nanogel PEG-PEI with AQ10 alone): three to four times less effective

- IC50 [17]: 48 nM
Compound: CNC1=CC(=O)C2=C(C1=O)C1C3=C(C(=O)C(Br)=C(OC)C3=O)C2c2ccccc21 (stereo not shown) [TT24]
- GI50 [15]: 1440 nM
- GI50 [2]: 1410 nM
- GI50 [16]: 1550 nM
